Results: patent US9809623B2, “α4β7 peptide monomer and dimer antagonists” (Protagonist Therapeutics, Inc., priority 2014, dated 2017)
Numbered stars: 1 amine (or outer) side, 2 acyl side, 3 side chain; on linkers, the order of the positions; unused ones are H or OH. Bridge positions count the residues as written; N and C are the ends. Square brackets hold non-standard residues; d marks the D form. Peptide text beside a SMILES is read from it. I, II: the chains in the order shown. Phe(3,4-Cl2) = N[C@@H](Cc1ccc(Cl)c(Cl)c1)C(=O)O; Phe(2,4-Cl2) = N[C@@H](Cc1ccc(Cl)cc1Cl)C(=O)O; 1Nal = N[C@@H](Cc1cccc2ccccc12)C(=O)O; 2Nal = N[C@@H](Cc1ccc2ccccc2c1)C(=O)O; Diglycolyl = O=C(COCC(=O)[*:2])[*:1]; NMeR = CN[C@@H](CCCNC(=N)N)C(=O)O; Pen = CC(C)(S)[C@H](N)C(=O)O; dNMeK = CN[C@H](CCCCN)C(=O)O

Key:
rh integrin α4β7 = molecular target: T1, rh integrin α4β7 (Homo sapiens, UniProt P13612+P26010); assay: α4β7-MAdCAM Competition ELISA; format: binding; conditions: Table 3-B, Potency (α4β7); range classes; read-out: α4β7 ELISA IC50
T1 construct: purchased R&D Systems 5397-A30
How it was run: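 Competition read-out was A450 after anti-human IgG1-HRP and TMB detection of bound recombinant human MAdCAM-1 (10 nM final). Peptides were serially diluted 3-fold from a final 10 μM and equilibrated 1 h at room temperature on nickel-captured α4β7 (800 ng/well). The buffer was Tris pH 7.6 with 1 mM Mn2+ or Mg2+.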

α4β1 = molecular target: T2, α4β1 (Homo sapiens, UniProt P05556+P13612, DEL729-798); assay: α4β1-VCAM Competition ELISA; format: binding; conditions: Table 3-B, Selectivity (α4β1); range classes; read-out: α4β1 ELISA IC50
T2 construct: purchased R&D Systems 5668-A4
Method: A Nunc MaxiSorp plate was coated with rh VCAM-1/CD106 Fc chimera (R&D #862-VC) at 400 ng/well in 50 ul per well in 1×PBS and incubated overnight at 4° C. The solution was removed by shaking and then blocked with 250 ul of 1% BSA in 1×PBS per well. The wells were then incubated at room temperature for 1 hr with shaking. Each well was then washed once with wash buffer (50 mM Tris-HCl pH7.6, 100 mM NaCL, 1 mM MnCl2 or MgCl2, 0.05% Tween-20). 25 ul of serial dilutions of peptides starting at 200 μM in assay buffer (Assay buffer: 50 mM Tris-HCl pH7.6, 100 mM NaCl, 1 mM MnCl2 or MgCl2, 0.05% Tween-20) was added to each well. Additionally, 25 ul of α4β1 (R&D Systems #5668-A4) was added to each well at a fixed concentration of 120 nM. The final peptide and α4β1 concentrations were 100 μM and 60 nM, respectively. The plates were then incubated at 37° C. for 2 hr. The solution was then removed by shaking, and each well was washed three times with wash buffer. 50 ul of 9F10 antibody at 4 ug/ml (purified mouse anti-human CD49d, BD Bioscience Cat#555502) was then added to each well, and the plate was incubated at room temperature for 1 hr with shaking. The solution was again removed by shaking, and each well was washed three times with wash buffer. 50 ul of peroxidase-conjugated AffiniPure Goat anti-mouse IgG (Jackson immune research cat #115-035-003) diluted in 1:5000 in assay buffer was added to each well. The plate was incubated at room temperature for 30 min with shaking. Each well was then washed 3 times with wash buffer. 100 ul of TMB was then added to each well and closely observe during developing time. The reaction was stepped with 2N H2SO4 and absorbance was read at 450 nm.

[1] = Simulated Intestinal Fluid (SIF) Stability Assay; format: in vitro ADME, porcine; conditions: > means experiment was stopped at that time and half life was not reached; for half-life at 22 μM: pig, simulated intestinal fluid (SIF) with 1% porcine pancreatin, pH 6.5, Table 3-B, read-out: Stabilty SIF t1/2
How it was run: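 Intestinal stability: percent peptide remaining over time, by LC-MS/MS peak-area ratio to internal standard, fitted to first-order decay for half-life. Conditions: 22 μM peptide, 1% pancreatin in pH 6.5 blank FASSIF, 37 °C.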

α4β7 = α4β7 (Homo sapiens, UniProt P13612+P26010); assay: α4β7-MAdCAM Cell Adhesion Assay (RPMI 8866 human cells); format: cell-based; design: host or cells: RPMI 8866 human B lymphoblastoid cells; conditions: Table 3-B, Potency (α4β7); range classes; read-out: α4β7 cell (Hu) IC50
How it was run: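 Adhesion read-out: MTT absorbance at 570 nm minus no-cell wells, after three washes. Plates coated with rh MAdCAM-1/Fc received peptide dilutions plus 200,000 RPMI 8866 cells in Mn2+ (1 mM)-supplemented DMEM, 0.1% BSA, HEPES pH 7, incubated 30-45 min, 37 °C.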

T2 sequence (P13612 34-977 limits assumed, stated change not applied): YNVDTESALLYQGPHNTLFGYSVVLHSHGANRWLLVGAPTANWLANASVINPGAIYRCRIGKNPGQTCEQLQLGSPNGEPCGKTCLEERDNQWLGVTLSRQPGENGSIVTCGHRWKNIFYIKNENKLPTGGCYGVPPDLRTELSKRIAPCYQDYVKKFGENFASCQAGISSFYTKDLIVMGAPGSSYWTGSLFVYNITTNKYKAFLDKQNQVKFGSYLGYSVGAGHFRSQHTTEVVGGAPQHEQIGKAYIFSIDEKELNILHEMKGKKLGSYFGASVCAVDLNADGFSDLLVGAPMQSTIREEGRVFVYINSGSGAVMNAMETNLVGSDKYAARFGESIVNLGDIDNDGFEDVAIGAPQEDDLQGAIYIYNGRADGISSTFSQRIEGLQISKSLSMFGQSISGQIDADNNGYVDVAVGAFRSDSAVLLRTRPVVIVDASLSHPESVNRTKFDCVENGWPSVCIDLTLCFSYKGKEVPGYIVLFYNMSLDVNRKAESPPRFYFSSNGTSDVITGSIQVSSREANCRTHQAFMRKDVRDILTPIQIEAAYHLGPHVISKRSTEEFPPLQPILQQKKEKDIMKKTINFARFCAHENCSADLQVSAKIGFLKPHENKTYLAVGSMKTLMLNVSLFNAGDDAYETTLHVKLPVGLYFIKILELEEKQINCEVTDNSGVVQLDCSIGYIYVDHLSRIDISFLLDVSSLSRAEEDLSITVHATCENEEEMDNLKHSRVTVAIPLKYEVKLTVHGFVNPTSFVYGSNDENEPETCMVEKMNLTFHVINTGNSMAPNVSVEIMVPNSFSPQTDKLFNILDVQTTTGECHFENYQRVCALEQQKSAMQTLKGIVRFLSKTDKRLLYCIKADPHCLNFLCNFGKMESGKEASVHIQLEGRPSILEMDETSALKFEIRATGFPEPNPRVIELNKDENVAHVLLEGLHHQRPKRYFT
T2 sequence (P05556 21-728 limits assumed, stated change not applied): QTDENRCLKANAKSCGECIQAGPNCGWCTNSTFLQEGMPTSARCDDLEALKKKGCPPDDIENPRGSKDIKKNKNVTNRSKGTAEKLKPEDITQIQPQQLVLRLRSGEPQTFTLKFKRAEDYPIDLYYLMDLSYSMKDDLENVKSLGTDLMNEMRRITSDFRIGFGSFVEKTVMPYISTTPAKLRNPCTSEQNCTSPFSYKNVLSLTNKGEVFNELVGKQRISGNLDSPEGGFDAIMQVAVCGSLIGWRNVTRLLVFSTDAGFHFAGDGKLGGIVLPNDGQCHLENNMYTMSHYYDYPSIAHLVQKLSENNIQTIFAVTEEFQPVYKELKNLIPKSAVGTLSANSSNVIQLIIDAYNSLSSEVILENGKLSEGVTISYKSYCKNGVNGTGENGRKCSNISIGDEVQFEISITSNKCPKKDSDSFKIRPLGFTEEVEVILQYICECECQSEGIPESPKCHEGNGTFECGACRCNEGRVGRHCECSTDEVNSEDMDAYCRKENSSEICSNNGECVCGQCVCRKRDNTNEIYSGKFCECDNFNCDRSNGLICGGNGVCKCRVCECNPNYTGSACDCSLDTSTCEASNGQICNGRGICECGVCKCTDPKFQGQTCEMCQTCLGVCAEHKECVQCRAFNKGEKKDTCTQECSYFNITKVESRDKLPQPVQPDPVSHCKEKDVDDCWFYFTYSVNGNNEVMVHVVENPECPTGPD
T1 sequence (P13612 34-977 limits assumed): as the sequence (P13612 34-977 limits assumed, stated change not applied) above
T1 sequence (P26010 20-723 limits assumed): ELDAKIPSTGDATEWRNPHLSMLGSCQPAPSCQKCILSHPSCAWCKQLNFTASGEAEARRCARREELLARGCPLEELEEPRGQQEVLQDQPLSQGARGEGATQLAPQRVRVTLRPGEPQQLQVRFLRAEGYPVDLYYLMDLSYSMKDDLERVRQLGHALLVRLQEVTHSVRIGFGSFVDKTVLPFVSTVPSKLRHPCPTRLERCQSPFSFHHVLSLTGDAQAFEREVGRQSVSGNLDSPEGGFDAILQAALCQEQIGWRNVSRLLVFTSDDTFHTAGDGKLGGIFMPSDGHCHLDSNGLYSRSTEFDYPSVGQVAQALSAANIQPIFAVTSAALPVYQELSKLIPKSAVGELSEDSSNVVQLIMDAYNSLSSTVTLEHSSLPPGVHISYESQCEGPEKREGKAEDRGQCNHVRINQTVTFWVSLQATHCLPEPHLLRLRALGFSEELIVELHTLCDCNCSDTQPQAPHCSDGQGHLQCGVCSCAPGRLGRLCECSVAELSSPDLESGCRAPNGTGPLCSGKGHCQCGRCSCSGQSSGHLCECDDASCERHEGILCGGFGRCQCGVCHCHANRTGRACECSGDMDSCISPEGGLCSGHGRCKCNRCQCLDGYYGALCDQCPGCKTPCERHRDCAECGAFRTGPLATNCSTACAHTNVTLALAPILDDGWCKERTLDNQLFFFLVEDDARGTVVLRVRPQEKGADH
Chain of α4β7 (P13612 34-1032): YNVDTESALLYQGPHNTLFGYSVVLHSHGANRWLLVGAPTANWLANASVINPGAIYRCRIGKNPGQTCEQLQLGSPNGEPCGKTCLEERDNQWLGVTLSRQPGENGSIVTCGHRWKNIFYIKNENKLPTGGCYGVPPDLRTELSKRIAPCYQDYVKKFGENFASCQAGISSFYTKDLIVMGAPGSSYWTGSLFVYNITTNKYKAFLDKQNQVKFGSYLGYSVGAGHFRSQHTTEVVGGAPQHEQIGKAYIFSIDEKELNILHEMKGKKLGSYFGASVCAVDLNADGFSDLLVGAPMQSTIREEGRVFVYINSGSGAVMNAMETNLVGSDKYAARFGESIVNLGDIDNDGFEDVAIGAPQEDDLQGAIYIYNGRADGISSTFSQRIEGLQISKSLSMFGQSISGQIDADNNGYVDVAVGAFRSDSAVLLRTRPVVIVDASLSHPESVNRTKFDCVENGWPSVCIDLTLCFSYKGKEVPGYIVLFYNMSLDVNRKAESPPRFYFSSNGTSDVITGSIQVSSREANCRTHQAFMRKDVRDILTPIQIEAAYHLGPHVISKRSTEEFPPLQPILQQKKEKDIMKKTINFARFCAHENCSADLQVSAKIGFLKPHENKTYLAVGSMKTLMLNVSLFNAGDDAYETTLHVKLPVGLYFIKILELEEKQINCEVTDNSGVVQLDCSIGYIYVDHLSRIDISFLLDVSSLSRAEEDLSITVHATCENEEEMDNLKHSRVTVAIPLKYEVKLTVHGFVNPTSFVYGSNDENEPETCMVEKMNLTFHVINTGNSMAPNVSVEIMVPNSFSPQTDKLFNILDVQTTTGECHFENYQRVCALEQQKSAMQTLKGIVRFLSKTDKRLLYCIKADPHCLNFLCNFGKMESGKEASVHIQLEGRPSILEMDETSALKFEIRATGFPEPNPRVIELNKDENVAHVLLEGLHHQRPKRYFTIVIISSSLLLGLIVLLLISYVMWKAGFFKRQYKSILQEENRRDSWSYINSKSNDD
Chain of α4β7 (P26010 20-798): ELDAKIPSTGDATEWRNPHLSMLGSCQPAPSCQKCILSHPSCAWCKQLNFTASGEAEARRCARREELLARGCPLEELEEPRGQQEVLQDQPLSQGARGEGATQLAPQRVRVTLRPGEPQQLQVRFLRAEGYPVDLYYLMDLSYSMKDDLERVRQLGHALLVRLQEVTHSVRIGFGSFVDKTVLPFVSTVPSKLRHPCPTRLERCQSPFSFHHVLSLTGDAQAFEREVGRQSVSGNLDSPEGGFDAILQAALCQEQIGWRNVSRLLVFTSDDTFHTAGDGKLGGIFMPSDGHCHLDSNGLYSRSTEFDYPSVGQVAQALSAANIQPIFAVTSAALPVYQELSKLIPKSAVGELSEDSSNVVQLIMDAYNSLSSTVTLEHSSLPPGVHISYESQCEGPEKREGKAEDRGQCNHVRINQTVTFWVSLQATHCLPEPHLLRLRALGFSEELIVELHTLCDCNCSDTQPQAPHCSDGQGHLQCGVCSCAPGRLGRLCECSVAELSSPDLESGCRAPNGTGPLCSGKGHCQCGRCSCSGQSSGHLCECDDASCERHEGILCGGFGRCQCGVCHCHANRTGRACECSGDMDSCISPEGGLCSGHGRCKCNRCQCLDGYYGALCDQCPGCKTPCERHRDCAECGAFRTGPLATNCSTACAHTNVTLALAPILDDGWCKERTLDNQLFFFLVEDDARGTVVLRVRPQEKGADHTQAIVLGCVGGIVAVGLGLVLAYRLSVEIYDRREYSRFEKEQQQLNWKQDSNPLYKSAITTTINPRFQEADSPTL

Compound | IC50 (rh integrin α4β7) | IC50 (α4β1) | half-life at 22 μM [1] | IC50 (α4β7) | Stabilty SIF t1/2 ([1]; Table 3-B)
CC(=O)N[C@@H]1C(=O)N(C)[C@@H](CCCNC(=N)N)C(=O)N[C@@H](CO)C(=O)N[C@@H](CC(=O)O)C(=O)N[C@@H]([C@@H](C)O)C(=O)N[C@@H](CC(C)C)C(=O)N[C@H](C(=O)N[C@@H](Cc2ccc3ccccc3c2)C(=O)N[C@@H](CCC(=O)O)C(=O)N(C)[C@H](CCCCNC(=O)COCC(=O)NCCCC[C@H](C(N)=O)N(C)C(=O)[C@H](CCC(=O)O)NC(=O)[C@H](Cc2ccc3ccccc3c2)NC(=O)[C@H]2NC(=O)[C@H](CC(C)C)NC(=O)[C@H]([C@@H](C)O)NC(=O)[C@H](CC(=O)O)NC(=O)[C@H](CO)NC(=O)[C@H](CCCNC(=N)N)N(C)C(=O)[C@@H](NC(C)=O)C(C)(C)SSC2(C)C)C(N)=O)C(C)(C)SSC1(C)C [compound 41] (I: Ac-[Pen][NMeR]SDTL[Pen][2Nal]E[dNMeK]-NH2 / II: Ac-[Pen][NMeR]SDTL[Pen][2Nal]E[dNMeK]-NH2; disulfide I:1-I:7, II:1-II:7; linker I:10-II:10 via Diglycolyl) | < 10 nM | 100 to 500 nM | > 180 min | < 10 nM | –
CC(=O)N[C@@H]1C(=O)N(C)[C@@H](CCCNC(=N)N)C(=O)N[C@@H](CO)C(=O)N[C@@H](CC(=O)O)C(=O)N[C@@H]([C@@H](C)O)C(=O)N[C@@H](CC(C)C)C(=O)N[C@H](C(=O)N[C@@H](Cc2cccc3ccccc23)C(=O)N[C@H](CCC(=O)O)C(=O)N(C)[C@H](CCCCNC(=O)COCC(=O)NCCCC[C@H](C(N)=O)N(C)C(=O)[C@@H](CCC(=O)O)NC(=O)[C@H](Cc2cccc3ccccc23)NC(=O)[C@H]2NC(=O)[C@H](CC(C)C)NC(=O)[C@H]([C@@H](C)O)NC(=O)[C@H](CC(=O)O)NC(=O)[C@H](CO)NC(=O)[C@H](CCCNC(=N)N)N(C)C(=O)[C@@H](NC(C)=O)C(C)(C)SSC2(C)C)C(N)=O)C(C)(C)SSC1(C)C [compound 38] (I: Ac-[Pen][NMeR]SDTL[Pen][1Nal][dE][dNMeK]-NH2 / II: Ac-[Pen][NMeR]SDTL[Pen][1Nal][dE][dNMeK]-NH2; disulfide I:1-I:7, II:1-II:7; linker I:10-II:10 via Diglycolyl) | < 10 nM | 100 to 500 nM | > 180 min | < 10 nM | –
CC(=O)N[C@@H]1C(=O)N(C)[C@@H](CCCNC(=N)N)C(=O)N[C@@H](CO)C(=O)N[C@@H](CC(=O)O)C(=O)N[C@@H]([C@@H](C)O)C(=O)N[C@@H](CC(C)C)C(=O)N[C@H](C(=O)N[C@@H](Cc2ccc(Cl)cc2Cl)C(=O)N[C@@H](CCC(=O)O)C(=O)N[C@H](CCCCNC(=O)COCC(=O)NCCCC[C@@H](NC(=O)[C@H](CCC(=O)O)NC(=O)[C@H](Cc2ccc(Cl)cc2Cl)NC(=O)[C@H]2NC(=O)[C@H](CC(C)C)NC(=O)[C@H]([C@@H](C)O)NC(=O)[C@H](CC(=O)O)NC(=O)[C@H](CO)NC(=O)[C@H](CCCNC(=N)N)N(C)C(=O)[C@@H](NC(C)=O)C(C)(C)SSC2(C)C)C(N)=O)C(N)=O)C(C)(C)SSC1(C)C [compound 42] (I: Ac-[Pen][NMeR]SDTL[Pen][Phe(2,4-Cl2)]E[dK]-NH2 / II: Ac-[Pen][NMeR]SDTL[Pen][Phe(2,4-Cl2)]E[dK]-NH2; disulfide I:1-I:7, II:1-II:7; linker I:10-II:10 via Diglycolyl) | < 10 nM | 100 to 500 nM | 51 min | < 10 nM | 49 min
CC(=O)N[C@@H]1C(=O)N(C)[C@@H](CCCNC(=N)N)C(=O)N[C@@H](CO)C(=O)N[C@@H](CC(=O)O)C(=O)N[C@@H]([C@@H](C)O)C(=O)N[C@@H](CC(C)C)C(=O)N[C@H](C(=O)N[C@@H](Cc2ccc(Cl)c(Cl)c2)C(=O)N[C@@H](CCC(=O)O)C(=O)N[C@H](CCCCNC(=O)COCC(=O)NCCCC[C@@H](NC(=O)[C@H](CCC(=O)O)NC(=O)[C@H](Cc2ccc(Cl)c(Cl)c2)NC(=O)[C@H]2NC(=O)[C@H](CC(C)C)NC(=O)[C@H]([C@@H](C)O)NC(=O)[C@H](CC(=O)O)NC(=O)[C@H](CO)NC(=O)[C@H](CCCNC(=N)N)N(C)C(=O)[C@@H](NC(C)=O)C(C)(C)SSC2(C)C)C(N)=O)C(N)=O)C(C)(C)SSC1(C)C [compound 43] (I: Ac-[Pen][NMeR]SDTL[Pen][Phe(3,4-Cl2)]E[dK]-NH2 / II: Ac-[Pen][NMeR]SDTL[Pen][Phe(3,4-Cl2)]E[dK]-NH2; disulfide I:1-I:7, II:1-II:7; linker I:10-II:10 via Diglycolyl) | < 10 nM | 100 to 500 nM | 21 min | 10 to 25 nM | –
CC(=O)N[C@@H]1C(=O)N(C)[C@@H](CCCNC(=N)N)C(=O)N[C@@H](CO)C(=O)N[C@@H](CC(=O)O)C(=O)N[C@@H]([C@@H](C)O)C(=O)N[C@@H](CC(C)C)C(=O)N[C@H](C(=O)N[C@@H](Cc2cccc3ccccc23)C(=O)N[C@@H](CCC(=O)O)C(=O)N[C@H](CCCCNC(=O)COCC(=O)NCCCC[C@@H](NC(=O)[C@H](CCC(=O)O)NC(=O)[C@H](Cc2cccc3ccccc23)NC(=O)[C@H]2NC(=O)[C@H](CC(C)C)NC(=O)[C@H]([C@@H](C)O)NC(=O)[C@H](CC(=O)O)NC(=O)[C@H](CO)NC(=O)[C@H](CCCNC(=N)N)N(C)C(=O)[C@@H](NC(C)=O)C(C)(C)SSC2(C)C)C(N)=O)C(N)=O)C(C)(C)SSC1(C)C [compound 24] (I: Ac-[Pen][NMeR]SDTL[Pen][1Nal]E[dK]-NH2 / II: Ac-[Pen][NMeR]SDTL[Pen][1Nal]E[dK]-NH2; disulfide I:1-I:7, II:1-II:7; linker I:10-II:10 via Diglycolyl) | < 10 nM | 100 to 500 nM | 56 min | < 10 nM | –
